From PubChem BioAssay AID330 (DTP/NCI, 2004)
“And” between values parts separate entries of the source, which are not always exact repeats. Equal values may be shown once. Toxic doses and inconclusive results are not listed. How the source made its calls: active means survival T/C of 150% or more; inactive means T/C below 125% in these data.

Tested on: P388 leukemia ip, CD2F1 mice, survival T/C
Assay: NCI In Vivo Anticancer Drug Screen. Data for tumor model P388 Leukemia (intraperitoneal) in CD2F1 (CDF1) mice
Settings: endpoint: median survival time, higher = longer survival
How it was run: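 Mice carrying the transplanted tumor received test compound or vehicle. Survival was recorded in each group, and the value is the treated-group measurement divided by that of the vehicle-treated control group.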

[1] = dose: 50.0 mg/kg/injection, schedule: Q01DX009 (ip), vehicle: Klucel (hydroxypropylcellulose) (HPC)
[2] = dose: 100.0 mg/kg/injection, schedule: Q01DX009 (ip), vehicle: Klucel (hydroxypropylcellulose) (HPC)
[3] = dose: 100.0 mg/kg/injection, schedule: Q04DX002 (ip), vehicle: Klucel (hydroxypropylcellulose) (HPC)
[4] = dose: 200.0 mg/kg/injection, schedule: Q04DX002 (ip), vehicle: Klucel (hydroxypropylcellulose) (HPC)
[5] = dose: 50.0 mg/kg/injection, schedule: Q01DX009 (ip), vehicle: saline with Tween-80
[6] = dose: 100.0 mg/kg/injection, schedule: Q01DX009 (ip), vehicle: saline with Tween-80
[7] = dose: 200.0 mg/kg/injection, schedule: Q01DX009 (ip), vehicle: saline with Tween-80
[8] = dose: 400.0 mg/kg/injection, schedule: Q01DX009 (ip), vehicle: saline with Tween-80
[9] = dose: 50.0 mg/kg/injection, schedule: Q01DX005 (ip), vehicle: Klucel (hydroxypropylcellulose) (HPC)
[10] = dose: 100.0 mg/kg/injection, schedule: Q01DX005 (ip), vehicle: Klucel (hydroxypropylcellulose) (HPC)
[11] = dose: 200.0 mg/kg/injection, schedule: Q01DX005 (ip), vehicle: Klucel (hydroxypropylcellulose) (HPC)
[12] = dose: 50.0 mg/kg/injection, schedule: Q01DX005 (ip), vehicle: saline with Tween-80
[13] = dose: 100.0 mg/kg/injection, schedule: Q01DX005 (ip), vehicle: saline with Tween-80
[14] = dose: 200.0 mg/kg/injection, schedule: Q01DX005 (ip), vehicle: saline with Tween-80
[15] = dose: 100.0 mg/kg/injection, schedule: Q04DX003 (ip), vehicle: saline
[16] = dose: 200.0 mg/kg/injection, schedule: Q04DX003 (ip), vehicle: saline
[17] = dose: 400.0 mg/kg/injection, schedule: Q04DX003 (ip), vehicle: saline
[18] = dose: 60.0 mg/kg/injection, schedule: Q01DX005 (ip), vehicle: Klucel (hydroxypropylcellulose) (HPC)
[19] = dose: 120.0 mg/kg/injection, schedule: Q01DX005 (ip), vehicle: Klucel (hydroxypropylcellulose) (HPC)

Measured: T/C

CSCC(CO)NC(=O)/C=C/c1c(C)[nH]c(=O)[nH]c1=O (stereo not drawn)
inactive: dose: 50.0 mg/kg/injection, schedule: Q01DX009 (ip), vehicle: other 86 % of control and 101 % of control | dose: 100.0 mg/kg/injection, schedule: Q01DX009 (ip), vehicle: other 89 % of control and 111 % of control | dose: 200.0 mg/kg/injection, schedule: Q01DX009 (ip), vehicle: other 94 % of control | dose: 400.0 mg/kg/injection, schedule: Q01DX009 (ip), vehicle: other 88 % of control

CN1C2=NCCN2C(=O)c2cc(Cl)ccc21
inactive: [1] 105 % of control | [2] 98 % of control

C/C(=N\NC(=S)NNC(=S)N1CCCc2ccccc21)c1ccccn1
inactive: [3] 113 % of control | [4] 115 % of control

CC(C)N1COC(c2ccccc2)C1 (stereo not drawn)
inactive: dose: 12.5 mg/kg/injection, schedule: Q01DX005 (ip), vehicle: saline 106 % of control and 88 % of control | dose: 25.0 mg/kg/injection, schedule: Q01DX005 (ip), vehicle: saline 123 % of control and 96 % of control | dose: 50.0 mg/kg/injection, schedule: Q01DX005 (ip), vehicle: saline 100 % of control and 110 % of control and 117 % of control | dose: 100.0 mg/kg/injection, schedule: Q01DX005 (ip), vehicle: saline 124 % of control

N#CC(C#N)=CN
inactive: [5] 94 % of control | [6] 103 % of control | [7] 103 % of control

CC1=CCC2C(C)(C)CCCC2(C)C1CCC(C)(O)C(O)CO (stereo not drawn)
inactive: dose: 25.0 mg/kg/injection, schedule: Q01DX005 (ip), vehicle: Klucel + Tween-80 98 % of control | dose: 50.0 mg/kg/injection, schedule: Q01DX005 (ip), vehicle: Klucel + Tween-80 101 % of control | dose: 100.0 mg/kg/injection, schedule: Q01DX005 (ip), vehicle: Klucel + Tween-80 98 % of control | dose: 200.0 mg/kg/injection, schedule: Q01DX005 (ip), vehicle: Klucel + Tween-80 100 % of control

O=C(O)C1CCCCC1c1c2ccc(=O)cc-2oc2cc(O)ccc12 (stereo not drawn)
inactive: [6] 90 % of control | [7] 95 % of control | [8] 100 % of control

COc1cc2c(cc1OC)C(c1ccccc1[N+](=O)[O-])=NCC2
inactive: [9] 99 % of control | [10] 94 % of control | [11] 92 % of control

Brc1ccc(Nc2nnc3nc(-c4ccccc4)c(-c4ccccc4)nn23)cc1
inactive: [12] 89 % of control | [13] 89 % of control | [14] 97 % of control

CC(C)(C)OC(=O)n1cnc(CC(NC(=O)OCc2ccccc2)C(=O)O)c1 (stereo not drawn)
inactive: [12] 105 % of control | [13] 100 % of control | [14] 106 % of control

C=C(Cl)CSC(=S)N1CCOCC1
inactive: [12] 101 % of control and 102 % of control and 96 % of control | [13] 105 % of control and 107 % of control and 109 % of control | [14] 101 % of control and 120 % of control and 97 % of control

O=C(Nc1ccc(S(=O)(=O)F)cc1)c1ccc2ccccc2c1O
inactive: [1] 103 % of control | [2] 94 % of control | dose: 200.0 mg/kg/injection, schedule: Q01DX009 (ip), vehicle: Klucel (hydroxypropylcellulose) (HPC) 91 % of control

CCOC(=O)CC(=N)C(C#N)C(=O)OCC (stereo not drawn)
inactive: dose: 6.25 mg/kg/injection, schedule: Q01DX009 (ip), vehicle: saline with Tween-80 101 % of control | dose: 12.5 mg/kg/injection, schedule: Q01DX009 (ip), vehicle: saline with Tween-80 101 % of control | dose: 25.0 mg/kg/injection, schedule: Q01DX009 (ip), vehicle: saline with Tween-80 99 % of control | [5] 99 % of control

O=S(=O)(O)/[N+]([O-])=N/O
inactive: [15] 100 % of control | [16] 100 % of control | [17] 100 % of control

CCCCCC(=O)/C=C/C1=C(N2CCCC2)CN(C(=O)OCC)C1
inactive: [18] 86 % of control | [19] 89 % of control | dose: 240.0 mg/kg/injection, schedule: Q01DX005 (ip), vehicle: Klucel (hydroxypropylcellulose) (HPC) 91 % of control

CCN(CC)CCNc1n[nH]c(=O)c2ccccc12
inactive: [5] 104 % of control | [6] 101 % of control | [7] 95 % of control

NC(Cc1cccs1)C(=O)O (stereo not drawn)
inactive: [6] 100 % of control | dose: 100.0 mg/kg/injection, schedule: Q04DX003 (ip), vehicle: saline with Tween-80 109 % of control | [7] 100 % of control | dose: 200.0 mg/kg/injection, schedule: Q04DX003 (ip), vehicle: saline with Tween-80 100 % of control | [8] 100 % of control | dose: 400.0 mg/kg/injection, schedule: Q04DX003 (ip), vehicle: saline with Tween-80 100 % of control

O=c1ccn(C2OC(COC(c3ccccc3)(c3ccccc3)c3ccccc3)C(O)C2OC(c2ccccc2)(c2ccccc2)c2ccccc2)c(=O)[nH]1 (stereo not drawn)
inactive: dose: 25.0 mg/kg/injection, schedule: Q01DX005 (ip), vehicle: Klucel (hydroxypropylcellulose) (HPC) 97 % of control | [9] 99 % of control | [10] 94 % of control | [11] 93 % of control

NC(=S)N=Nc1c(O)n(CCCO)c2ccccc12
inactive: [18] 93 % of control | [19] 100 % of control

CC(=O)NC(Cn1cc(C(N)=O)ccc1=N)C(=O)O (stereo not drawn)
inactive: dose: 1.56 mg/kg/injection, schedule: Q01DX005 (ip), vehicle: Klucel (hydroxypropylcellulose) (HPC) 102 % of control | dose: 3.12 mg/kg/injection, schedule: Q01DX005 (ip), vehicle: Klucel (hydroxypropylcellulose) (HPC) 108 % of control and 114 % of control | dose: 6.25 mg/kg/injection, schedule: Q01DX005 (ip), vehicle: Klucel (hydroxypropylcellulose) (HPC) 115 % of control and 122 % of control | dose: 12.5 mg/kg/injection, schedule: Q01DX005 (ip), vehicle: Klucel (hydroxypropylcellulose) (HPC) 121 % of control

O=[N+]([O-])c1ccc(SC2=NCCCN2)c(Cl)c1
inactive: [5] 102 % of control | [6] 100 % of control | [7] 105 % of control

Cn1cnc2cc(N3CCOCC3)c(N)cc2c1=O
inactive: [3] 106 % of control | [4] 102 % of control | dose: 400.0 mg/kg/injection, schedule: Q04DX002 (ip), vehicle: Klucel (hydroxypropylcellulose) (HPC) 102 % of control

CC(=O)OCC(=O)[C@@]1(O)CC[C@H]2[C@@H]3C[C@H](F)C4=CC(=O)CC[C@]4(C)[C@H]3[C@@H](O)C[C@@]21C
inactive: [15] 104 % of control | [16] 100 % of control | [17] 95 % of control

Cn1cnc2c(N(CCO)CCO)ncnc21
inactive: dose: 50.0 mg/kg/injection, schedule: Q01DX005 (ip), vehicle: distilled water + Tween-80 + alcohol 109 % of control | dose: 100.0 mg/kg/injection, schedule: Q01DX005 (ip), vehicle: distilled water + Tween-80 + alcohol 105 % of control | dose: 200.0 mg/kg/injection, schedule: Q01DX005 (ip), vehicle: distilled water + Tween-80 + alcohol 106 % of control

CN1C(=O)CC([Se]c2ccccc2)C1=O (stereo not drawn)
inactive: dose: 6.25 mg/kg/injection, schedule: Q04DX003 (ip), vehicle: Klucel (hydroxypropylcellulose) (HPC) 107 % of control and 97 % of control | dose: 12.5 mg/kg/injection, schedule: Q04DX003 (ip), vehicle: Klucel (hydroxypropylcellulose) (HPC) 103 % of control and 104 % of control | dose: 25.0 mg/kg/injection, schedule: Q04DX003 (ip), vehicle: Klucel (hydroxypropylcellulose) (HPC) 99 % of control and 105 % of control | dose: 50.0 mg/kg/injection, schedule: Q04DX003 (ip), vehicle: Klucel (hydroxypropylcellulose) (HPC) 100 % of control | dose: 100.0 mg/kg/injection, schedule: Q04DX003 (ip), vehicle: Klucel (hydroxypropylcellulose) (HPC) 105 % of control
